The values below come from patent publication US20160046592A1, “PHARMACEUTICAL COMPOSITION FOR THE TREATMENT OF DIABETES” (Ajinomoto Co., Inc., priority 2013, published 2016).

Counter-ions that a name gives are not always drawn.

For the assay, the target named is T1, human GYS1 (glycogen synthase) (Homo sapiens, UniProt P13807).
T1 construct: made in house; host or cells: HEK293T
T1 sequence (P13807 1-737): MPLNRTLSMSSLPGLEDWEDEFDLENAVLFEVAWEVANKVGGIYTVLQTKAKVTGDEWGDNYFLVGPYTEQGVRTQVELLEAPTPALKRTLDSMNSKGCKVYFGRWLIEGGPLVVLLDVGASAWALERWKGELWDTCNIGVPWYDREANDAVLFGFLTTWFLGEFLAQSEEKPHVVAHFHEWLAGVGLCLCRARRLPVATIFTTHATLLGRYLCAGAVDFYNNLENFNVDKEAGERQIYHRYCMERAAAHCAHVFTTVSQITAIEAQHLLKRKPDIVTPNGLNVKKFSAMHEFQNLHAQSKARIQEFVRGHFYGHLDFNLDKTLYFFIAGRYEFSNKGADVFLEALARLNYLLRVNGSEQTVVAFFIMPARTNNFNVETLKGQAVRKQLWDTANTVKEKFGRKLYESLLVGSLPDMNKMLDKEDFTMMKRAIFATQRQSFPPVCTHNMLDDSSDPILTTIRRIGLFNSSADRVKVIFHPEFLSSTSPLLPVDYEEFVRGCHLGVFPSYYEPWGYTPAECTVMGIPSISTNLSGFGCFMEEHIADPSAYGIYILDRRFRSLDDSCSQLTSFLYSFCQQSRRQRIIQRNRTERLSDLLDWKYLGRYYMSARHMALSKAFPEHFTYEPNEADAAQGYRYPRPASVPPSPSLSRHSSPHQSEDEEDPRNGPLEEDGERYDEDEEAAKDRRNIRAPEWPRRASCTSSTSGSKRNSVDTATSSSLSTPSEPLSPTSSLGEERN
As to the kind of experiment: Measurement of glycogen synthase activity. In kind it is biochemical. The following applies: concentration causing 50% increase in relative activity; 100% = compound of Example 1 of WO/2011/058154 at 10 μM; 10 mM Glucose-6-phosphate; 37° C. for 25 minutes (Examples 1 to 61 and 67 to 82) or 20 minutes (Examples 62 to 66); absorbance at 340 nm. How it is done: A human GYS1 expression plasmid (pCDNA3.1(+)-hGYS1) was constructed by the following method. By using a human skeletal muscle cDNA of Human MTC Panel I (Takara Bio Inc., 636742) as a template, a human GYS1 gene was amplified by a PCR method using cloning primers (Forward Primer: ATGCCTTTAAACCGCAC, Reverse Primer: TTAGTTACGCTCCTCGC). By using the amplified human GYS1 sequence as a template, restriction enzyme sequences were added by a PCR method using sub-cloning primers (Forward Primer: […], and Reverse Primer: […]), and then the human GYS1 gene was introduced between Xho I and Xba I sites of pCDNA3.1(+) (Invitrogen, V790-20).
Glycogen synthase was prepared by the following method. Human kidney-derived HEK293T cells were seeded in a dish (Thermo Fisher Scientific K.K., 168381) by using a 10% FBS-containing DMEM (Nacalai Tesque, Inc., 0845874) medium, and cultured overnight. Then, by using Lipofectamine LTX (Invitrogen, 15338-100), the cells were transfected with the human GYS1 expression vector according to the attached manual. After culturing under conditions of 37° C. and 5% CO2 for 2 days, the resultant was lysed in a lysis buffer (50 mM Tris-HCl (pH 8.0), 10 mM EDTA, 2 mM EGTA, 100 mM NaF, 1 mM PMSF, 1 mM DTT, and 1× Complete (Roche, 1873580)), homogenized, and then centrifuged at 16000×g at 4° C. for 15 minutes. The precipitated fraction re-dissolved by adding the lysis buffer was used as a glycogen synthase for evaluation.
The glycogen synthase activity was measured by the following method. To a polystyrene 96-well plate, solutions each containing 30 mM glycylglycine (pH 7.3), 40 mM KCl, 20 mM MgCl2, 9.2% DMSO containing one of the test compounds at one of various concentrations, and 10 mM Glucose-6-phosphate (Sigma-Aldrich, G7879) were added at 12 μL/well.
Next, a substrate solution containing 30 mM glycylglycine (pH 7.3), 4.3 mg/mL glycogen (Sigma-Aldrich, G8876), 21.6 mM UDP-glucose (Sigma-Aldrich, U4625), 21.6 mM phosphoenolpyruvic acid (Sigma-Aldrich, P0564), and 4.05 mM NADH (Sigma-Aldrich, N8129) was added at 18 μL/well.
Moreover, an enzyme solution containing 50 mM Tris-HCl (pH 8.0), 27 mM DTT (NACALAI TESQUE, INC., 14128-04), 0.2 mg/mL bovine serum albumin, 0.17 mg/mL glycogen synthase, and 1.5 μL pyruvate kinase/lactate dehydrogenase solution (Sigma-Aldrich, P0294) was added at 18 μL/well to prepare reaction solutions. After the reaction solutions were incubated (at 37° C. for 25 minutes for Examples 1 to 61 and 67 to 82 or at 37° C. for 20 minutes for Examples 62 to 66), the absorbance at 340 nm was measured by using Benchmark Plus (Bio-Rad Laboratories, Inc.).
The activity of each test compound was calculated by the following method. The absorbance at 340 nm of the reaction solution containing the compound and DMSO was subtracted from the absorbance at 340 nm of a reaction solution not containing the compound but containing only DMSO to calculate the change (ΔA340) in absorbance. The relative activity (%) of the test compound at each of the various concentrations was calculated, where the ΔA340 of a reaction solution containing the compound of Example 1 of WO/2011/058154 at a final concentration of 10 μM was taken as 100%. EC50 representing the concentration of the compound at which an increase in the relative activity by 50% was caused was calculated using XLfit (idbs).
For `NC(=O)C1CC[C@@H](C(=O)O)N1C(=O)c1cccc(COc2ccc(-c3cc(F)c(F)c4ccoc34)cc2)c1` (single isomer, unassigned) [Example 4, (2S,5R) or (2S,5S)-5-Carbamoyl-1-[3-[[4-(4,5-difluorobenzofuran-7-yl)phenoxy]methyl]benzoyl]pyrrolidine-2-carboxylic Acid], the EC50 was < 3 nM.

`CSc1cc(F)c(F)cc1-c1ccc(OCc2cccc(C(=O)N3C(C(N)=O)CC[C@H]3C(=O)O)c2)cc1` (single isomer, unassigned) [Example 57, (2S,5R) or (2S,5S)-5-Carbamoyl-1-[3-[[4-(4,5-difluoro-2-methylsulfanyl-phenyl)phenoxy]methyl]benzoyl]pyrrolidine-2-carboxylic Acid] yielded an EC50 of 10 nM. `CSc1cc(F)c(F)cc1-c1ccc(OCc2cccc(C(=O)N3C(C(N)=O)CC[C@H]3C(=O)O)c2)cc1` (single isomer, unassigned) [Example 58, (2S,5S) or (2S,5R)-5-Carbamoyl-1-[3-[[4-(4,5-difluoro-2-methylsulfanyl-phenyl)phenoxy]methyl]benzoyl]pyrrolidine-2-carboxylic Acid] yielded an EC50 of 7.3 nM.

In turn, `NC(=O)C1CC[C@@H](C(=O)O)N1C(=O)c1cccc(COc2ccc(-c3cc(F)c(F)c4ccoc34)cc2)c1` (single isomer, unassigned) [Example 76, (2S,5S) or (2S,5R)-5-Carbamoyl-1-[3-[[4-(4,5-difluorobenzofuran-7-yl)phenoxy]methyl]benzoyl]pyrrolidine-2-carboxylic Acid] displayed an EC50 of 22 nM. In the case of `COC1CCN(C(=O)c2cccc(COc3ccc(-c4cc(F)c(F)cc4SC)cc3)c2)C1C(=O)O` (stereo in doubt) [Example 33, (2S,3S)-1-[3-[[4-(4,5-Difluoro-2-methylsulfanyl-phenyl)phenoxy]methyl]benzoyl]-3-methoxy-pyrrolidine-2-carboxylic Acid], the EC50 is 21 nM. For `NC(=O)CN(CC(=O)O)C(=O)c1cccc(COc2ccc(-c3cc(F)c(F)c4ccoc34)cc2)c1` [Example 1, 2-[(2-Amino-2-oxo-ethyl)-[3-[[4-(4,5-difluorobenzofuran-7-yl)phenoxy]methyl]benzoyl]amino]acetic Acid], the EC50 is 13 nM. With `O=C(O)[C@@H]1[C@@H](O)CCN1C(=O)c1cccc(COc2ccc(-c3cc(F)c(F)c4ccoc34)cc2)c1` [Example 2, (2S,3S)-1-[3-[[4-(4,5-Difluorobenzofuran-7-yl)phenoxy]methyl]benzoyl]-3-hydroxy-pyrrolidine-2-carboxylic Acid] the figure was 4.3 nM; with `O=C(O)[C@@H]1[C@H](O)CCN1C(=O)c1cccc(COc2ccc(-c3cc(F)c(F)c4ccoc34)cc2)c1` [Example 3, (2S,3R)-1-[3-[[4-(4,5-Difluorobenzofuran-7-yl)phenoxy]methyl]benzoyl]-3-hydroxy-pyrrolidine-2-carboxylic Acid], 16 nM. For the compound `CSc1cc(F)c(F)cc1-c1ccc(OCc2cccc(C(=O)N3CC[C@H](O)[C@H]3C(=O)O)c2)cc1` [Example 5, (2S,3S)-1-[3-[[4-(4,5-Difluoro-2-methylsulfanyl-phenyl)phenoxy]methyl]benzoyl]-3-hydroxy-pyrrolidine-2-carboxylic Acid], the EC50 was < 10 nM.

`COCCN(CC(=O)O)C(=O)c1cccc(COc2ccc(-c3cc(F)c(F)cc3SC)cc2)c1` [Example 6, 2-[[3-[[4-(4,5-Difluoro-2-methylsulfanyl-phenyl)phenoxy]methyl]benzoyl]-(2-methoxyethyl)amino]acetic Acid] returned an EC50 of 17 nM. Regarding `CSc1cc(F)c(F)cc1-c1ccc(OCc2cccc(C(=O)N(CCC#N)CC(=O)O)c2)cc1` [Example 7, 2-[2-Cyanoethyl-[3-[[4-(4,5-difluoro-2-methylsulfanyl-phenyl)phenoxy]methyl]benzoyl]amino]acetic Acid], the EC50 came out at 11 nM.

Compound `CS(=O)(=O)CCN(CC(=O)O)C(=O)c1cccc(COc2ccc(-c3cc(F)c(F)c4ccoc34)cc2)c1` [Example 8, 2-[[3-[[4-(4,5-Difluorobenzofuran-7-yl)phenoxy]methyl]benzoyl]-(2-methylsulfonylethyl)amino]acetic Acid] returned an EC50 of 15 nM. For `O=C(O)CN(CC1CCOCC1)C(=O)c1cccc(COc2ccc(-c3cc(F)c(F)c4ccoc34)cc2)c1` [Example 9, 2-[[3-[[4-(4,5-Difluorobenzofuran-7-yl)phenoxy]methyl]benzoyl]-(tetrahydropyran-4-ylmethyl)amino]acetic Acid] the value was 16 nM; for `CSc1cc(F)c(F)cc1-c1ccc(OCc2cccc(C(=O)N(CC(N)=O)CC(=O)O)c2)cc1` [Example 10, 2-[(2-Amino-2-oxo-ethyl)-[3-[[4-(4,5-difluoro-2-methylsulfanyl-phenyl)phenoxy]methyl]benzoyl]amino]acetic Acid], 7.2 nM. For `CN(C)C(=O)CN(CC(=O)O)C(=O)c1cccc(COc2ccc(-c3cc(F)c(F)c4ccoc34)cc2)c1` [Example 11, 2-[[3-[[4-(4,5-Difluorobenzofuran-7-yl)phenoxy]methyl]benzoyl]-[2-(dimethylamino)-2-oxo-ethyl]amino]acetic Acid] the value was 10 nM; for `O=C(O)CN(CC1CCNCC1)C(=O)c1cccc(COc2ccc(-c3cc(F)c(F)c4ccoc34)cc2)c1` [Example 12, 2-[[3-[[4-(4,5-Difluorobenzofuran-7-yl)phenoxy]methyl]benzoyl]-(4-piperidylmethyl)amino]acetic Acid Trifluoroacetate], 16 nM; for `CN(C)CCN(CC(=O)O)C(=O)c1cccc(COc2ccc(-c3cc(F)c(F)c4ccoc34)cc2)c1` [Example 13, 2-[[3-[[4-(4,5-Difluorobenzofuran-7-yl)phenoxy]methyl]benzoyl]-(2-dimethylaminoethyl)amino]acetic Acid Trifluoroacetate], 15 nM. With `Cc1coc2c(-c3ccc(OCc4cccc(C(=O)N(CCS(C)(=O)=O)CC(=O)O)c4)cc3)cc(F)c(F)c12` [Example 14, 2-[[3-[[4-(4,5-Difluoro-3-methyl-benzofuran-7-yl)phenoxy]methyl]benzoyl]-(2-methylsulfonylethyl)amino]acetic Acid] the figure was 15 nM.
